Source: patent publication US20250154144A1 (CHILDREN'S HOSPITAL MEDICAL CENTER, priority 2021, published 2025)
Where two headings read alike, the source gives them in different places.

What was measured:
FLT3 [1] = target: T1, FLT3 (Homo sapiens, UniProt P36888); assay: RBC HotSpot Kinase Assay, FLT3; conditions: FLT3 IC50
T1 sequence (P36888 610-943 limits assumed): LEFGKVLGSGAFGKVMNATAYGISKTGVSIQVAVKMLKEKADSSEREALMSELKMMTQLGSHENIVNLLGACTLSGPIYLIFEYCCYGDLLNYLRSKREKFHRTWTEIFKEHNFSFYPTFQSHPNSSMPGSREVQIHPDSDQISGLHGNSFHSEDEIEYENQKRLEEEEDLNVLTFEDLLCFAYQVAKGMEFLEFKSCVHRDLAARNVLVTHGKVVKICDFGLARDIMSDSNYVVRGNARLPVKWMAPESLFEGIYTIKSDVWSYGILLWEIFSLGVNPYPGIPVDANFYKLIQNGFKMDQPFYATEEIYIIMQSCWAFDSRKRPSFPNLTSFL

FLT3 [2] = target: T2, FLT3 (Homo sapiens, UniProt P36888); assay: Reaction Biology NanoBRET target engagement assay in HEK-293 cells, FLT3; conditions: NanoBRET FLT3 IC50, HEK-293 cells
T2 sequence (P36888 27-993): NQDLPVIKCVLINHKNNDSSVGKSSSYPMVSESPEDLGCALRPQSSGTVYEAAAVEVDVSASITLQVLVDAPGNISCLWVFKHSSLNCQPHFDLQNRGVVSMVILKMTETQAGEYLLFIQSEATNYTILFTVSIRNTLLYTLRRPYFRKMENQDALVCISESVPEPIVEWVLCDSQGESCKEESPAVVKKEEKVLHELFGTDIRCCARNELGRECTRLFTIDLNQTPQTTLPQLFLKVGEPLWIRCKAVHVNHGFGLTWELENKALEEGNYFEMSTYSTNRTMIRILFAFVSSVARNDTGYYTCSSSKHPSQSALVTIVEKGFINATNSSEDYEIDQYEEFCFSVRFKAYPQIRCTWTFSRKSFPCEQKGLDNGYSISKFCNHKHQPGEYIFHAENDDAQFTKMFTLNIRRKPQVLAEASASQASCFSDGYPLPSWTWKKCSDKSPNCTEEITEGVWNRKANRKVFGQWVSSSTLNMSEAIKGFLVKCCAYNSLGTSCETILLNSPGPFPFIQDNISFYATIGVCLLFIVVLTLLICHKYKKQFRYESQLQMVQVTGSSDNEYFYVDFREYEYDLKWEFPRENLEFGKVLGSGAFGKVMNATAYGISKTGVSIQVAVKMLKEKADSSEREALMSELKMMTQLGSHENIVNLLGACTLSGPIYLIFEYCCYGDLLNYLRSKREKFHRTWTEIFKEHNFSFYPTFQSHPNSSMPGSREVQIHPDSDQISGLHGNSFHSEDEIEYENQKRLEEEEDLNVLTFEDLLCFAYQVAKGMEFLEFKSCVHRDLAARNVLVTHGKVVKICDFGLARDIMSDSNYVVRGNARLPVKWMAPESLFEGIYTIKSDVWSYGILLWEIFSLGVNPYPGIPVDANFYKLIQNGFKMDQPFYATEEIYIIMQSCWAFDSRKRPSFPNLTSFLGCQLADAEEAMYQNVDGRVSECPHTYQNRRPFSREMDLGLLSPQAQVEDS

MOLM14(D835Y) cells = format: cell-based; conditions: MOLM14(D835Y) cells; for Excess HSA Score: 10 × 10
THP1 cells = assay: Combination drug screening, Cell Titer Glo, 10 × 10 matrix, THP1 cells; format: cell-based; conditions: THP1 cells; for Excess HSA Score: 10 × 10
IRAK1 [3] = target: T3, IRAK1 (Homo sapiens, UniProt P51617); assay: RBC HotSpot Kinase Assay, IRAK1; conditions: IRAK1 IC50
T3 sequence (P51617 whole entry): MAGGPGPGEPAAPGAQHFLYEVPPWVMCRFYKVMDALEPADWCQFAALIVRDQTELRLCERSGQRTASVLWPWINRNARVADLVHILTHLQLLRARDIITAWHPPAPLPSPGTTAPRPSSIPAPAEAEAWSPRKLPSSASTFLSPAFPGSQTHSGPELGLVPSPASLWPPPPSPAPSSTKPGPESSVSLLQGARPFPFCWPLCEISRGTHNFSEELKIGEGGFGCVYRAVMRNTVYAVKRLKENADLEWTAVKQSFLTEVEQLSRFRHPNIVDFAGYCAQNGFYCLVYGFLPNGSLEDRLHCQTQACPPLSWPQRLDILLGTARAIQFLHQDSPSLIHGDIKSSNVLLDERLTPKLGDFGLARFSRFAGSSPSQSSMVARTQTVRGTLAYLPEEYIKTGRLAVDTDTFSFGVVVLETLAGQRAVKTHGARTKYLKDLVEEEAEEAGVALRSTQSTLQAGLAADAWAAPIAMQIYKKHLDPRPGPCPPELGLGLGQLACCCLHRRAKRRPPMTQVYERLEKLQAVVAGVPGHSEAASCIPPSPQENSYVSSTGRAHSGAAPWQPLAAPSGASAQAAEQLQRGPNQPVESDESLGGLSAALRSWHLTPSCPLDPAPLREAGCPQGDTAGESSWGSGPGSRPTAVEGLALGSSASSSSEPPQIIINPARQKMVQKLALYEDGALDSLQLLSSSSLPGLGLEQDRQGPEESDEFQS

IRAK4 [4] = target: T4, IRAK4 (Homo sapiens, UniProt Q9NWZ3); assay: Reaction Biology NanoBRET target engagement assay in HEK-293 cells, IRAK4; conditions: NanoBRET IRAK4 IC50, HEK-293 cells
T4 sequence (Q9NWZ3 1-460): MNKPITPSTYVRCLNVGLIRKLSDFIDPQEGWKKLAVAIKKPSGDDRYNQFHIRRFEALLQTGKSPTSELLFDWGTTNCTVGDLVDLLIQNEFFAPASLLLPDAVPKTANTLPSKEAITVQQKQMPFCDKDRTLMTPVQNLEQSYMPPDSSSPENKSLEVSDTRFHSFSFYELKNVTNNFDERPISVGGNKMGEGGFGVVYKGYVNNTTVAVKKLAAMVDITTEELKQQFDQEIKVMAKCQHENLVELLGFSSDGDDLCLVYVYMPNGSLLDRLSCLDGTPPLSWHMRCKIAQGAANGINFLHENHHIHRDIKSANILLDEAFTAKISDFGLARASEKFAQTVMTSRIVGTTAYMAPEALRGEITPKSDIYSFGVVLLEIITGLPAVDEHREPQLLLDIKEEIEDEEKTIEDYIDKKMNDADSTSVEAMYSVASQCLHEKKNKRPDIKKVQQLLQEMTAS

IRAK4 [5] = target: T4, IRAK4; assay: RBC HotSpot Kinase Assay, IRAK4; conditions: IRAK4 IC50
MOLM14 F691L cells = assay: cells; format: cell-based; conditions: Homo sapiens, MOLM-14, 48 h, 48 hours, Cell Titer Glo; read-out: MOLM14 F691L IC50
MOLM14 D835Y cells = assay: cells; format: cell-based; conditions: Homo sapiens, MOLM-14, 48 h, 48 hours, Cell Titer Glo; read-out: MOLM14 D835Y IC50
IRAK1 [6] = target: T3, IRAK1; assay: DiscoverX KINOMEscan competition binding, IRAK1; design: purchased RBC (Reaction Biology) HotSpot assay
IRAK4 [7] = target: T4, IRAK4; assay: DiscoverX KINOMEscan competition binding, IRAK4; design: purchased RBC (Reaction Biology) HotSpot assay
[8] = combination with (+)-BAY-1251152
[9] = combination with Eprenetapopt/APR-246
[10] = combination with Venetoclax (ABT-199)

Row | SMILES | IC50 (FLT3 [1]) [nM] | IC50 (FLT3 [2]) [nM] | Excess HSA Score (MOLM14(D835Y) cells; [8]) | Excess HSA Score (MOLM14(D835Y) cells; combination with AMG-232) | Excess HSA Score (MOLM14(D835Y) cells; combination with AZD-5363) | Excess HSA Score (MOLM14(D835Y) cells; [9]) | Excess HSA Score (MOLM14(D835Y) cells; combination with Ivosidenib) | Excess HSA Score (MOLM14(D835Y) cells; combination with Lenalidomide) | Excess HSA Score (MOLM14(D835Y) cells; combination with Palbociclib) | Excess HSA Score (MOLM14(D835Y) cells; combination with Prednisolone) | Excess HSA Score (MOLM14(D835Y) cells; combination with SNDX-5613) | Excess HSA Score (MOLM14(D835Y) cells; combination with TNO-155) | Excess HSA Score (MOLM14(D835Y) cells; combination with Trametinib) | Excess HSA Score (MOLM14(D835Y) cells; combination with Ulixertinib) | Excess HSA Score (MOLM14(D835Y) cells; [10]) | Comments (MOLM14(D835Y) cells; combination with SNDX-5613) | IC50 (IRAK1 [3]) [nM] | IC50 (IRAK4 [5]) [nM] | IC50 (MOLM14 F691L cells) [nM] | IC50 (MOLM14 D835Y cells) [nM] | other results
1 | COc1ccn2c(-c3ccnc(N[C@H]4CNC[C@@H]4F)n3)cnc2c1 [Compound 28, N-((3S,4S)-4-fluoropyrrolidin-3-yl)-4-(7-methoxyimidazo[1,2-a]pyridin-3-yl)pyrimidin-2-amine] | < 0.5 | 65 | −477 | −628.3 | −377.1 | 330.3 | −92.39 | 340.1 | −207.7 | −600.8 | 49.85 | −593.8 | 115.3 | 57.98 | −1089 | Antagonistic | 6 | 0.8 | 307 | 19 | Comments (MOLM14(D835Y) cells; [10]): Synergistic; Excess HSA Score (THP1 cells; [8]): −347.5; Excess HSA Score (THP1 cells; combination with AMG-232): 401.8; Excess HSA Score (THP1 cells; combination with AZD-5363): −208.6; Excess HSA Score (THP1 cells; [9]): −126.4; Excess HSA Score (THP1 cells; combination with Ivosidenib): 313; Excess HSA Score (THP1 cells; combination with Lenalidomide): 486.7; Excess HSA Score (THP1 cells; combination with Palbociclib): −270.8; Excess HSA Score (THP1 cells; combination with Prednisolone): 381.4; Excess HSA Score (THP1 cells; combination with SNDX-5613): 492.2; Excess HSA Score (THP1 cells; combination with TNO-155): 98.5766; Excess HSA Score (THP1 cells; combination with Trametinib): −880.8; Excess HSA Score (THP1 cells; combination with Ulixertinib): −60.25; Excess HSA Score (THP1 cells; [10]): −1412; Comments (THP1 cells; combination with TNO-155): Antagonistic; Comments (THP1 cells; [10]): Synergistic; IC50 (IRAK4 [4]): 0.7 nM
2 | COc1cc2ncc(-c3ccnc(N[C@H]4CNC[C@@H]4F)n3)n2cc1C(C)(C)O [Compound 43, 2-(3-(2-(((3S,4S)-4-fluoropyrrolidin-3-yl)amino)pyrimidin-4-yl)-7-methoxyimidazo[1,2-a]pyridin-6-yl)propan-2-ol] | – | – | – | – | – | – | – | – | – | – | – | – | – | – | – | – | 0.7 | < 0.5 | 69 | 11 | Kd (IRAK1 [6]): 0.33 nM; Kd (IRAK4 [7]): 0.081 nM
3 | COc1cc2ncc(-c3ccnc(N[C@H]4CNCC[C@@H]4F)n3)n2cc1C(C)(C)O [Compound 45, 2-(3-(2-(((3S,4S)-4-fluoropiperidin-3-yl)amino)pyrimidin-4-yl)-7-methoxyimidazo[1,2-a]pyridin-6-yl)propan-2-ol] | < 0.5 | 28 | 117.1 | −212.5 | 384.6 | 477.7 | −76.48 | 515.9 | −172.2 | −357.5 | 58.42 | −372.6 | −362.6 | 288.2 | −803.3 | Antagonistic | 2 | 0.7 | 43 | 9 | Comments (MOLM14(D835Y) cells; [10]): Synergistic; Excess HSA Score (THP1 cells; [8]): −402.7072; Excess HSA Score (THP1 cells; combination with AMG-232): 138.2; Excess HSA Score (THP1 cells; combination with AZD-5363): −206.1; Excess HSA Score (THP1 cells; [9]): 183; Excess HSA Score (THP1 cells; combination with Ivosidenib): 93.15; Excess HSA Score (THP1 cells; combination with Lenalidomide): 388.3; Excess HSA Score (THP1 cells; combination with Palbociclib): −236; Excess HSA Score (THP1 cells; combination with Prednisolone): 67.79; Excess HSA Score (THP1 cells; combination with SNDX-5613): 169.6; Excess HSA Score (THP1 cells; combination with TNO-155): −134.2061; Excess HSA Score (THP1 cells; combination with Trametinib): −226.2; Excess HSA Score (THP1 cells; combination with Ulixertinib): 218.0361; Excess HSA Score (THP1 cells; [10]): −360.8; Comments (THP1 cells; [8]): Synergistic; Comments (THP1 cells; combination with Prednisolone): Antagonistic; IC50 (IRAK4 [4]): < 0.5 nM
